PubChem BioAssay AID2060902 (Molecular Pharmacology Branch, DTP, NCI, 2025)

Test system: 485368-065-R3-J5-PDC spheroids with HUVEC/MSC, viability
Experiment: Anticancer human tumor 485368-065-R3-J5-PDC patient-derived pancreatic carcinoma cell line growth inhibition [RAS]
Settings: for IC50: curve of first compound; for viability, T/C: stronger effect = lower value
Procedure, shortened: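 Multi-cell-type spheroids: tumor cells plus HUVEC endothelial cells and mesenchymal stem cells. RAS-pathway inhibitors were combined with targeted agents, each dosed in half-log steps down from clinical Cmax, or from 10 microM when Cmax was unknown.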
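Also: spheroids exposed to agents for seven days before readout.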

Compound: CCc1c2c(nc3ccc(O)cc13)-c1cc3c(c(=O)n1C2)COC(=O)[C@]3(O)CC + C=CC(=O)N1CCN(c2nc(OCC3CCCN3C)nc3c(F)c(-c4nc(N)cc(C)c4C(F)(F)F)c(Cl)cc23)C(C)C1
- IC50 (second compound 0.00316 µM): 1.96 nM
- IC50 (second compound 0.01 µM): 2.09 nM
- IC50 (second compound 0.0316 µM): 2.15 nM
- IC50 (second compound 0.1 µM): 2.06 nM
- IC50 (second compound 0.316 µM): 2.08 nM
- IC50 (second compound 1 µM): 1.76 nM
- viability, T/C (second compound 0.00316 µM, first compound 0.000949 µM): 87.9%
- viability, T/C (second compound 0.00316 µM, first compound 0.003 µM): 25.8%
- viability, T/C (second compound 0.00316 µM, first compound 0.00949 µM): 15.8%
- viability, T/C (second compound 0.00316 µM, first compound 0.03 µM): 6.75%
- viability, T/C (second compound 0.00316 µM, first compound 0.0949 µM): 4.49%
- viability, T/C (second compound 0.00316 µM, first compound 0.3 µM): 3.28%
- viability, T/C (second compound 0.01 µM, first compound 0.000949 µM): 90.6%
- viability, T/C (second compound 0.01 µM, first compound 0.003 µM): 28.9%
- viability, T/C (second compound 0.01 µM, first compound 0.00949 µM): 17.6%
- viability, T/C (second compound 0.01 µM, first compound 0.03 µM): 7.17%
- viability, T/C (second compound 0.01 µM, first compound 0.0949 µM): 3.98%
- viability, T/C (second compound 0.01 µM, first compound 0.3 µM): 3.67%
- viability, T/C (second compound 0.0316 µM, first compound 0.000949 µM): 89.7%
- viability, T/C (second compound 0.0316 µM, first compound 0.003 µM): 33.6%
- viability, T/C (second compound 0.0316 µM, first compound 0.00949 µM): 13%
- viability, T/C (second compound 0.0316 µM, first compound 0.03 µM): 6.26%
- viability, T/C (second compound 0.0316 µM, first compound 0.0949 µM): 4.82%
- viability, T/C (second compound 0.0316 µM, first compound 0.3 µM): 3.26%
- viability, T/C (second compound 0.1 µM, first compound 0.000949 µM): 85.4%
- viability, T/C (second compound 0.1 µM, first compound 0.003 µM): 32.5%
- viability, T/C (second compound 0.1 µM, first compound 0.00949 µM): 12.2%
- viability, T/C (second compound 0.1 µM, first compound 0.03 µM): 6.25%
- viability, T/C (second compound 0.1 µM, first compound 0.0949 µM): 4.43%
- viability, T/C (second compound 0.1 µM, first compound 0.3 µM): 3.35%
- viability, T/C (second compound 0.316 µM, first compound 0.000949 µM): 81.7%
- viability, T/C (second compound 0.316 µM, first compound 0.003 µM): 34.7%
- viability, T/C (second compound 0.316 µM, first compound 0.00949 µM): 15.1%
- viability, T/C (second compound 0.316 µM, first compound 0.03 µM): 5.63%
- viability, T/C (second compound 0.316 µM, first compound 0.0949 µM): 4.4%
- viability, T/C (second compound 0.316 µM, first compound 0.3 µM): 3.28%
- viability, T/C (second compound 1 µM, first compound 0.000949 µM): 74.6%
- viability, T/C (second compound 1 µM, first compound 0.003 µM): 26.8%
- viability, T/C (second compound 1 µM, first compound 0.00949 µM): 16.5%
- viability, T/C (second compound 1 µM, first compound 0.03 µM): 5.78%
- viability, T/C (second compound 1 µM, first compound 0.0949 µM): 5.14%
- viability, T/C (second compound 1 µM, first compound 0.3 µM): 3.4%

Compound: Nc1ccn(C2OC(CO)C(O)C2(F)F)c(=O)n1 (centres undefined) + C=CC(=O)N1CCN(c2nc(OCC3CCCN3C)nc3c(F)c(-c4nc(N)cc(C)c4C(F)(F)F)c(Cl)cc23)C(C)C1
- IC50 (second compound 0.00316 µM): 6.42 nM
- IC50 (second compound 0.01 µM): 6.43 nM
- IC50 (second compound 0.0316 µM): 6.5 nM
- IC50 (second compound 0.1 µM): 6.18 nM
- IC50 (second compound 0.316 µM): 6.26 nM
- IC50 (second compound 1 µM): 6.1 nM
- viability, T/C (second compound 0.00316 µM, first compound 0.00316 µM): 107%
- viability, T/C (second compound 0.00316 µM, first compound 0.01 µM): 14.7%
- viability, T/C (second compound 0.00316 µM, first compound 0.0316 µM): 10.7%
- viability, T/C (second compound 0.00316 µM, first compound 0.1 µM): 9.52%
- viability, T/C (second compound 0.00316 µM, first compound 0.316 µM): 8.08%
- viability, T/C (second compound 0.00316 µM, first compound 1 µM): 10.4%
- viability, T/C (second compound 0.01 µM, first compound 0.00316 µM): 104%
- viability, T/C (second compound 0.01 µM, first compound 0.01 µM): 16.8%
- viability, T/C (second compound 0.01 µM, first compound 0.0316 µM): 9.83%
- viability, T/C (second compound 0.01 µM, first compound 0.1 µM): 7.76%
- viability, T/C (second compound 0.01 µM, first compound 0.316 µM): 10.4%
- viability, T/C (second compound 0.01 µM, first compound 1 µM): 9.94%
- viability, T/C (second compound 0.0316 µM, first compound 0.00316 µM): 103%
- viability, T/C (second compound 0.0316 µM, first compound 0.01 µM): 18.4%
- viability, T/C (second compound 0.0316 µM, first compound 0.0316 µM): 12.1%
- viability, T/C (second compound 0.0316 µM, first compound 0.1 µM): 9.22%
- viability, T/C (second compound 0.0316 µM, first compound 0.316 µM): 9.83%
- viability, T/C (second compound 0.0316 µM, first compound 1 µM): 10.7%
- viability, T/C (second compound 0.1 µM, first compound 0.00316 µM): 97%
- viability, T/C (second compound 0.1 µM, first compound 0.01 µM): 16.3%
- viability, T/C (second compound 0.1 µM, first compound 0.0316 µM): 9.86%
- viability, T/C (second compound 0.1 µM, first compound 0.1 µM): 7.88%
- viability, T/C (second compound 0.1 µM, first compound 0.316 µM): 9.19%
- viability, T/C (second compound 0.1 µM, first compound 1 µM): 9.27%
- viability, T/C (second compound 0.316 µM, first compound 0.00316 µM): 101%
- viability, T/C (second compound 0.316 µM, first compound 0.01 µM): 15.3%
- viability, T/C (second compound 0.316 µM, first compound 0.0316 µM): 8.44%
- viability, T/C (second compound 0.316 µM, first compound 0.1 µM): 8.63%
- viability, T/C (second compound 0.316 µM, first compound 0.316 µM): 9.97%
- viability, T/C (second compound 0.316 µM, first compound 1 µM): 11%
- viability, T/C (second compound 1 µM, first compound 0.00316 µM): 89.7%
- viability, T/C (second compound 1 µM, first compound 0.01 µM): 20.2%
- viability, T/C (second compound 1 µM, first compound 0.0316 µM): 11.6%
- viability, T/C (second compound 1 µM, first compound 0.1 µM): 9.69%
- viability, T/C (second compound 1 µM, first compound 0.316 µM): 11.4%
- viability, T/C (second compound 1 µM, first compound 1 µM): 11.8%
